Where two headings read alike, the source gives them in different places.

Broadly, the IC50 is the concentration at which inhibition is half-maximal.

Common to all, as to type: cell-based, human
One experiment has as its system MCF7 cells. Put plainly: MCF7 cell viability, sulforhodamine B assay. To be noted: for IC50: Homo sapiens, MCF7. As to the method:
MCF7 (ER^+, PR^+, HER2^−), SKBR3 (ER^−, PR^+, HER2^+) and MDA-MB231 (ER^−, PR^−, HER2^−) human BC cells and MCF10A non-cancer breast epithelial cells were available in our laboratory. MCF7, SKBR3 and MDA-MB231 cells were cultured in DMEM, supplemented with 10% FBS, 2 mM glutamine, 100 units/ml penicillin and 100 units/ml streptomycin. MCF10A cells were cultured in MEBM, supplemented with 0.4% BPE, 0.1% hEGF, 0.1%, Insulin, 0.1% Hydrocortisone and 0.1% GA-1000. […] Treatment with SER were carried out in culture conditions. Treatment with Tamoxifen and/or SER were carried out upon 48 h estrogen starvation in phenol-red free medium supplemented with 10% Charcoal Stripped (C/S) FBS, 2 mM glutamine, 100 units/ml penicillin and 100 units/ml streptomycin.
(§1) Cells were fixed with 50% trichloroacetic acid for at least 2 h at 4 °C, washed with distilled and de-ionized water, air-dryed and stained 30 min with 0.4% sulforhodamine B in 1% acetic acid. Unbound dye was removed and 10 mM tris-HCl solution (pH 7.5) was added to dissolve the protein-bound dye. Cell survival was assessed by optical density determination at 510 nm using a microplate reader.
After 48 and 72 h, cell viability was assessed by sulforhodamine B assay (see Methods).

A further experiment relates to MCF7-R cells. Put plainly: Tamoxifen-resistant MCF7-R cell viability, sulforhodamine B assay. The note with it: SER 20 μM; for effect on MCF7-R cells if used alone (viability): E2 100 nM, 72 h; for effect on viability of MCF7-R cells in co-treatment with Tamoxifen: Tamoxifen 5 μM, E2, 72 h. As to the method:
as §1
MCF7 cells were cultured for 4 months in phenol-red free medium supplemented with 10% (C/S) FBS and continuously exposed to Tamoxifen (1 μM). […] To further validate the degree of drug resistance, the expression levels of ABCC1, ABCG1 and ABCG2 – members of ABC transporter family known as involved in multi-drug resistance – were evaluated by Quantitative Real-Time PCR (qPCR; see below) upon cell treatment with 5 μM Tamoxifen for 72 h.
Fig. 9 Effect of SER79 and SER68 on Tamoxifen-resistant (MCF7-R) cells. a Estrogen starved MCF7-R were treated with SER79 (20 μM, 5 μM) or SER68 (20 μM) in presence of E2 (100 nM). b Estrogen-starved MCF7-R were treated with Tamoxifen (5 μM) in presence of E2 and SER79 (20 μM) or SER68 (20 μM). a,b As positive control, the cells were treated with E2 alone, in absence or in presence of SER (dotted line). After 72 h, cell viability was assessed by sulforhodamine B assay (see Methods). The results were reported as percentage of viable cells compared to positive control, considered as maximum viability (100%). c mRNA levels of CTGF were determined by qPCR (see Methods and Table 1) in MCF7-R cells upon treatment with SER68 (20 μM). Data were normalized on Ribosomal Protein S23 (Rps23) gene as internal standard and reported as CTGF mRNA levels in MCF7-R. a-c Graphs represent the mean ± SD of at least three independent triplicate experiments. * denotes statistically significant values compared with (b) positive control or (c) MCF7 cells (*adjp<0.05; **adjp<0.001). # denotes statistically significant values compared with untreated MCF7-R (#pval<0.05) […]
Figure S3. Establishment of MCF7 Tamoxifen re sista n t(M C F7-R) cells. MCF7 cells were cultured with Tamoxifen (1µM), in absence of E2, for 4 months (M C F7-R). (a-b) MCF7 and MCF7-R cells were treated with in c re a s in gconcentration of Tamoxifen […]
As positive control, cells were treated with E2 alone. Cell viability was measured by sulforhodamine B assay (se e Methods). The re su ltswere re p o rte das percentage of viable cells compared to untreated cells, considered as maximum viability (100%). […]
(a ) * denotes statistically significant values compared with untreated cells […]
(1 picture or pasted object on this page, not shown here)

A further experiment concerns CTGF. Put plainly: CTGF mRNA levels in MCF7-R cells, qPCR. The note with it: SER 20 μM. As to the method: Total RNA was isolated from cells, quantified (NanoDrop spectrophotometer, Life Technologies, Carlsbad, CA, USA) and reverse transcribed according to the manufacturer’s instructions. Semiquantitative PCR and qPCR assays were performed according to manufacturer’s instructions for Bio-Rad T100 thermal cycler and CFX Connect Real Time system (Biorad, Hercules, CA, USA), respectively. Relative gene expression quantification was measured by 2^−ΔΔCt method normalizing for the reference sample using Rps23 (Ribosomal Protein S23) as housekeeping gene.
Fig. 9 Effect of SER79 and SER68 on Tamoxifen-resistant (MCF7-R) cells. a Estrogen starved MCF7-R were treated with SER79 (20 μM, 5 μM) or SER68 (20 μM) in presence of E2 (100 nM). b Estrogen-starved MCF7-R were treated with Tamoxifen (5 μM) in presence of E2 and SER79 (20 μM) or SER68 (20 μM). a,b As positive control, the cells were treated with E2 alone, in absence or in presence of SER (dotted line). After 72 h, cell viability was assessed by sulforhodamine B assay (see Methods). The results were reported as percentage of viable cells compared to positive control, considered as maximum viability (100%). c mRNA levels of CTGF were determined by qPCR (see Methods and Table 1) in MCF7-R cells upon treatment with SER68 (20 μM). […]
In general terms: Quantitative PCR measures a nucleic acid by following its amplification.

Setting [1] is: 48 h treatment, read-out: IC50 MCF7 48h.
The mark [2] stands for this setting: 72 h treatment, read-out: IC50 MCF7.

Take `O=C1C2C3C=CC(C3)C2C(=O)N1OCCN1CCN(c2ccc(Cl)c(Cl)c2)CC1` (stereo not shown) [SER68]: the IC50 in the experiment on MCF7 cells (setting [1]) came to 131 ± 13.8 µM. Besides, the half-inhibitory concentration (IC50) in the experiment on MCF7 cells (setting [2]) was determined as 54.2 ± 10.2 µM. In the experiment on MCF7-R cells, the “effect on MCF7-R cells if used alone (viability)” value is on record as “neither” and the “effect on viability of MCF7-R cells in co-treatment with Tamoxifen” value is reported as “significantly reduced viability”. Besides, the “effect on CTGF mRNA content of MCF7-R cells” value with CTGF is “did not further reduce”.
As to `N#CN=C(NCCCN1CCN(C(c2ccc(F)cc2)c2ccc(F)cc2)CC1)c1ccccn1` [SER79], the “reduction of MCF7 cell viability” value with MCF7 cells (50 μM, 72 h) is listed as “≈ 70%”. For the same compound, the IC50 with MCF7 cells (setting [1]) turned out to be 85.1 ± 13.4 µM; with MCF7 cells (setting [2]), 24.1 µM. Also, the “effect on MCF7-R cells if used alone (viability)” value in the experiment on MCF7-R cells is “neither”. Further, the “effect on viability of MCF7-R cells in co-treatment with Tamoxifen” value with MCF7-R cells was “No significant effect”.

The values are drawn from paper PMC8845285, “Serotoninergic receptor ligands improve Tamoxifen effectiveness on breast cancer cells” (BMC Cancer, 2022).
